Experimental data taken from PubChem BioAssay AID1918948 (Molecular Pharmacology Branch, DTP, NCI, 2023).
Where “and” joins values, the source holds several entries; their conditions need not be identical. Identical values can stand only once. Each block holds one compound with its values, some of them ahead of it.

Tested on: K-562 leukemia growth, % test/control
Assay: Anticancer human tumor K-562 cell line growth inhibition;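 further: spheroids exposed to compounds for 7 days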;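 on viability, T/C: 100% = DMSO vehicle wells and lower values mean fewer viable cells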
Conditions: spheroids with HUVEC and MSC; for viability, T/C: stronger effect = lower value
Method in brief: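 Multicellular complex spheroids of tumor cells with human endothelial cells (HUVEC) and mesenchymal stem cells; the LSD1 inhibitor iadademstat was combined with standard-of-care or investigational agents. Top concentration at or near clinical Cmax, half-log dilutions; final DMSO ≤0.25%.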

[1] = curve of first compound, second compound 0.1 µM
[2] = curve of first compound, second compound 0.316 µM
[3] = curve of first compound, second compound 1 µM
[4] = curve of first compound, second compound 3.16 µM
[5] = curve of first compound, second compound 10 µM
[6] = second compound 0.1 µM, first compound 0.00316 µM
[7] = second compound 0.1 µM, first compound 0.01 µM
[8] = second compound 0.1 µM, first compound 0.0316 µM
[9] = second compound 0.1 µM, first compound 0.1 µM
[10] = second compound 0.1 µM, first compound 0.316 µM
[11] = second compound 0.1 µM, first compound 1 µM
[12] = second compound 0.316 µM, first compound 0.00316 µM
[13] = second compound 0.316 µM, first compound 0.01 µM
[14] = second compound 0.316 µM, first compound 0.0316 µM
[15] = second compound 0.316 µM, first compound 0.1 µM
[16] = second compound 0.316 µM, first compound 0.316 µM
[17] = second compound 0.316 µM, first compound 1 µM
[18] = second compound 1 µM, first compound 0.00316 µM
[19] = second compound 1 µM, first compound 0.01 µM
[20] = second compound 1 µM, first compound 0.0316 µM
[21] = second compound 1 µM, first compound 0.1 µM
[22] = second compound 1 µM, first compound 0.316 µM
[23] = second compound 1 µM, first compound 1 µM
[24] = second compound 3.16 µM, first compound 0.00316 µM
[25] = second compound 3.16 µM, first compound 0.01 µM
[26] = second compound 3.16 µM, first compound 0.0316 µM
[27] = second compound 3.16 µM, first compound 0.1 µM
[28] = second compound 3.16 µM, first compound 0.316 µM
[29] = second compound 3.16 µM, first compound 1 µM
[30] = second compound 10 µM, first compound 0.00316 µM
[31] = second compound 10 µM, first compound 0.01 µM
[32] = second compound 10 µM, first compound 0.0316 µM
[33] = second compound 10 µM, first compound 0.1 µM
[34] = second compound 10 µM, first compound 0.316 µM
[35] = second compound 10 µM, first compound 1 µM
[36] = second compound 0.1 µM, first compound 3.16 µM
[37] = second compound 0.1 µM, first compound 10 µM
[38] = second compound 0.316 µM, first compound 3.16 µM
[39] = second compound 0.316 µM, first compound 10 µM
[40] = second compound 1 µM, first compound 3.16 µM
[41] = second compound 1 µM, first compound 10 µM
[42] = second compound 3.16 µM, first compound 3.16 µM
[43] = second compound 3.16 µM, first compound 10 µM
[44] = second compound 10 µM, first compound 3.16 µM
[45] = second compound 10 µM, first compound 10 µM
[46] = second compound 0.1 µM, first compound 0.000316 µM
[47] = second compound 0.1 µM, first compound 0.001 µM
[48] = second compound 0.316 µM, first compound 0.000316 µM
[49] = second compound 0.316 µM, first compound 0.001 µM
[50] = second compound 1 µM, first compound 0.000316 µM
[51] = second compound 1 µM, first compound 0.001 µM
[52] = second compound 3.16 µM, first compound 0.000316 µM
[53] = second compound 3.16 µM, first compound 0.001 µM
[54] = second compound 10 µM, first compound 0.000316 µM
[55] = second compound 10 µM, first compound 0.001 µM

SMILES: Nc1ncn(C2CC(O)C(CO)O2)c(=O)n1 (configuration not stated) + NC1CCC(NC2CC2c2ccccc2)CC1
IC50 [1]: 695 nM | IC50 [2]: 770 nM | IC50 [3]: 640 nM | IC50 [4]: 396 nM | IC50 [5]: 69.5 nM | viability, T/C [6]: 102% | viability, T/C [7]: 98.2% | viability, T/C [8]: 89.2% | viability, T/C [9]: 71.4% | viability, T/C [10]: 54.7% | viability, T/C [11]: 47.8% | viability, T/C [12]: 104% | viability, T/C [13]: 100% | viability, T/C [14]: 90.3% | viability, T/C [15]: 71% | viability, T/C [16]: 56.4% | viability, T/C [17]: 48% | viability, T/C [18]: 103% | viability, T/C [19]: 100% | viability, T/C [20]: 89.4% | viability, T/C [21]: 72.4% | viability, T/C [22]: 56.3% | viability, T/C [23]: 46.1% | viability, T/C [24]: 102% | viability, T/C [25]: 99.5% | viability, T/C [26]: 88.1% | viability, T/C [27]: 68.4% | viability, T/C [28]: 50.8% | viability, T/C [29]: 45% | viability, T/C [30]: 89.3% | viability, T/C [31]: 84.5% | viability, T/C [32]: 64.2% | viability, T/C [33]: 45% | viability, T/C [34]: 25.6% | viability, T/C [35]: 24.9%

IC50 (curve of compound): 13.1 nM and < 3.16 nM
SMILES: CC1COCCN1c1cc(-c2ccnn2C)c2ccnc(-c3ccn[nH]3)c2n1 (configuration not stated)
viability, T/C (compound 0.00316 µM): 88.3% and 28.6% | viability, T/C (compound 0.01 µM): 59.4% and 15.3% | viability, T/C (compound 0.0316 µM): 19.1% and 3.08% | viability, T/C (compound 0.1 µM): 5.33% and 2.16% | viability, T/C (compound 0.316 µM): 3.07% and 2.39% | viability, T/C (compound 1 µM): 2.84% and 2.02%

SMILES: CC(C)c1c(-c2ccccc2)nc2c(C#N)c[nH]n2c1=O + NC1CCC(NC2CC2c2ccccc2)CC1
IC50 [1]: > 10000 nM | IC50 [2]: > 10000 nM | IC50 [3]: > 10000 nM | IC50 [4]: > 10000 nM | IC50 [5]: > 10000 nM | viability, T/C [8]: 98.7% | viability, T/C [9]: 95.2% | viability, T/C [10]: 96.6% | viability, T/C [11]: 100% | viability, T/C [36]: 99.1% | viability, T/C [37]: 98.9% | viability, T/C [14]: 100% | viability, T/C [15]: 101% | viability, T/C [16]: 99.8% | viability, T/C [17]: 98.6% | viability, T/C [38]: 99.6% | viability, T/C [39]: 98.9% | viability, T/C [20]: 102% | viability, T/C [21]: 102% | viability, T/C [22]: 100% | viability, T/C [23]: 99.4% | viability, T/C [40]: 100% | viability, T/C [41]: 101% | viability, T/C [26]: 102% | viability, T/C [27]: 102% | viability, T/C [28]: 99.7% | viability, T/C [29]: 102% | viability, T/C [42]: 103% | viability, T/C [43]: 100% | viability, T/C [32]: 95.6% | viability, T/C [33]: 98.7% | viability, T/C [34]: 96.8% | viability, T/C [35]: 97% | viability, T/C [44]: 97.9% | viability, T/C [45]: 98.4%

SMILES: Cn1ncnc1C1c2n[nH]c(=O)c3cc(F)cc(c23)NC1c1ccc(F)cc1 (configuration not stated) + NC1CC1c1ccc(-c2cccc(O)c2)cc1
IC50 [1]: > 100 nM | IC50 [2]: > 100 nM | IC50 [3]: > 100 nM | IC50 [4]: > 100 nM | IC50 [5]: > 100 nM | viability, T/C [46]: 112% | viability, T/C [47]: 110% | viability, T/C [6]: 108% | viability, T/C [7]: 108% | viability, T/C [8]: 105% | viability, T/C [9]: 101% | viability, T/C [48]: 108% | viability, T/C [49]: 105% | viability, T/C [12]: 105% | viability, T/C [13]: 105% | viability, T/C [14]: 101% | viability, T/C [15]: 97.2% | viability, T/C [50]: 106% | viability, T/C [51]: 102% | viability, T/C [18]: 97.8% | viability, T/C [19]: 96.7% | viability, T/C [20]: 97.2% | viability, T/C [21]: 95.2% | viability, T/C [52]: 106% | viability, T/C [53]: 100% | viability, T/C [24]: 95.6% | viability, T/C [25]: 98.8% | viability, T/C [26]: 98.5% | viability, T/C [27]: 93.2% | viability, T/C [54]: 101% | viability, T/C [55]: 101% | viability, T/C [30]: 99.7% | viability, T/C [31]: 98.4% | viability, T/C [32]: 95.4% | viability, T/C [33]: 89.1%

SMILES: CC(C)CC(NC(=O)CNC(=O)c1cc(Cl)ccc1Cl)B1OC(=O)CC(CC(=O)O)(C(=O)O)O1 (configuration not stated) + NC1CCC(NC2CC2c2ccccc2)CC1
IC50 [1]: 12.9 nM | IC50 [2]: 12.8 nM | IC50 [3]: 13.1 nM | IC50 [4]: 13.4 nM | IC50 [5]: 11.7 nM | viability, T/C [46]: 102% | viability, T/C [47]: 96.6% | viability, T/C [6]: 100% | viability, T/C [7]: 59.5% | viability, T/C [8]: 15.6% | viability, T/C [9]: 6.56% | viability, T/C [48]: 99.6% | viability, T/C [49]: 102% | viability, T/C [12]: 102% | viability, T/C [13]: 58.7% | viability, T/C [14]: 16.7% | viability, T/C [15]: 6.02% | viability, T/C [50]: 104% | viability, T/C [51]: 102% | viability, T/C [18]: 102% | viability, T/C [19]: 61.5% | viability, T/C [20]: 12.8% | viability, T/C [21]: 6.77% | viability, T/C [52]: 103% | viability, T/C [53]: 98.1% | viability, T/C [24]: 103% | viability, T/C [25]: 60.6% | viability, T/C [26]: 16.9% | viability, T/C [27]: 5.71% | viability, T/C [54]: 97.9% | viability, T/C [55]: 99.5% | viability, T/C [30]: 96.5% | viability, T/C [31]: 54.2% | viability, T/C [32]: 16.9% | viability, T/C [33]: 4.71%

SMILES: CC1COCCN1c1cc(C2(S(C)(=N)=O)CC2)nc(-c2ccnc3[nH]ccc23)n1 (configuration not stated) + NC1CCC(NC2CC2c2ccccc2)CC1
IC50 [1]: 578 nM | IC50 [2]: 603 nM | IC50 [3]: 614 nM | IC50 [4]: 602 nM | IC50 [5]: 511 nM | viability, T/C [8]: 101% | viability, T/C [9]: 97.5% | viability, T/C [10]: 81.8% | viability, T/C [11]: 21.2% | viability, T/C [36]: 3.64% | viability, T/C [37]: 2.72% | viability, T/C [14]: 104% | viability, T/C [15]: 96.9% | viability, T/C [16]: 84.5% | viability, T/C [17]: 23.1% | viability, T/C [38]: 4.12% | viability, T/C [39]: 2.74% | viability, T/C [20]: 106% | viability, T/C [21]: 101% | viability, T/C [22]: 86.2% | viability, T/C [23]: 23.4% | viability, T/C [40]: 3.81% | viability, T/C [41]: 2.62% | viability, T/C [26]: 103% | viability, T/C [27]: 99.7% | viability, T/C [28]: 84.5% | viability, T/C [29]: 22.9% | viability, T/C [42]: 3.69% | viability, T/C [43]: 2.79% | viability, T/C [32]: 96.6% | viability, T/C [33]: 98.2% | viability, T/C [34]: 73.2% | viability, T/C [35]: 17.3% | viability, T/C [44]: 3.62% | viability, T/C [45]: 2.14%
